Key:
[1] = biological target: T1, recombinant Ndc80 complex (Bonsai; Ndc80^bonsai) (Homo sapiens, UniProt O14777); experiment: fluorescence anisotropy of the compound (ex […] nm, em […] nm); assay type: binding; settings: PBS, 23 °C; 5 μM VTT-006, 1–15 μM protein; one site model with ligand depletion
T1 construct: Ndc80 bonsai: globular domains with shortened rod; plasmid from A. Musacchio; E. coli BL21(DE3), GST cut off with PreScission; with Kinetochore protein Nuf2; Kinetochore protein Spc25; Kinetochore protein Spc24

[2] = biological target: T2, GFP-tagged Ndc80 complex (Ndc80-GFP) (Homo sapiens, UniProt O14777); experiment: single-molecule TIRF, residence time of Ndc80-GFP on microtubules; assay type: biochemical; settings: 10 μM VTT-006; Taxol-stabilized microtubules, BRB80 pH 6.9; Ndc80 6–10 pM
T2 construct: with Kinetochore protein Nuf2; Kinetochore protein Spc25; Kinetochore protein Spc24
T2 sequence (O14777 whole entry): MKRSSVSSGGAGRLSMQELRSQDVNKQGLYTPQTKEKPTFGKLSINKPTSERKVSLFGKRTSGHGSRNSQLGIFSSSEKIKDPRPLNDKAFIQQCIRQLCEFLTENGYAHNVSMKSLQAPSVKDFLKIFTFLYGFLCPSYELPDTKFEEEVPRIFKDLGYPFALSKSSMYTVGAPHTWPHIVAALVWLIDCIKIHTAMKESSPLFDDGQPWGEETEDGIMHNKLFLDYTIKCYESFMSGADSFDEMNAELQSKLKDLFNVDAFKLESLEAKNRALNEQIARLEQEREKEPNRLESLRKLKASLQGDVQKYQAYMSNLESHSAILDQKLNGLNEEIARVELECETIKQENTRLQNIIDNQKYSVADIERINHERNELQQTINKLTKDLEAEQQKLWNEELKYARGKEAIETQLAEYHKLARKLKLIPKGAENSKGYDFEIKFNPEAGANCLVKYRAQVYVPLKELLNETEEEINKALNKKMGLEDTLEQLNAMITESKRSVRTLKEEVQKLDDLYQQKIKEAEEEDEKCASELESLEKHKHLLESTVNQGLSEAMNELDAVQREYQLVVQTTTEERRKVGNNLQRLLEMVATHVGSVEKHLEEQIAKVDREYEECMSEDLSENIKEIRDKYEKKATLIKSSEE
T2 sequence (Q9BZD4 whole entry partner): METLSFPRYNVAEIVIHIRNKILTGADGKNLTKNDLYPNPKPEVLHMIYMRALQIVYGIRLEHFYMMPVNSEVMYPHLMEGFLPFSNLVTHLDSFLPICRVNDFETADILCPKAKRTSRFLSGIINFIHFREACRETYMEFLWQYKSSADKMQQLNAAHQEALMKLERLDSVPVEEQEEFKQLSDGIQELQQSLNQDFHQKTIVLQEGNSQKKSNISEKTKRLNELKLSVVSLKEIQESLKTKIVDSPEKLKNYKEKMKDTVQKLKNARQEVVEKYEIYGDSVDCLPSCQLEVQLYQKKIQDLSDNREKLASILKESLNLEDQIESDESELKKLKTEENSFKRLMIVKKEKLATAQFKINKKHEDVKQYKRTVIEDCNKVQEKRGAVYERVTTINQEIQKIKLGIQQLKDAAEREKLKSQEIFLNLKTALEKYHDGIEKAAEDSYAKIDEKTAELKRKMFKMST
T2 sequence (Q8NBT2 whole entry partner): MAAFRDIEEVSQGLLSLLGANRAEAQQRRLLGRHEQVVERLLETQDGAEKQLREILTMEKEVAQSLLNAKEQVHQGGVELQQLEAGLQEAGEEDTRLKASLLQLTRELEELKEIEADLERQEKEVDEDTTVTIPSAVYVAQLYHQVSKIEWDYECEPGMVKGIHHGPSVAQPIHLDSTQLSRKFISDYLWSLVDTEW
T2 sequence (Q9HBM1 whole entry partner): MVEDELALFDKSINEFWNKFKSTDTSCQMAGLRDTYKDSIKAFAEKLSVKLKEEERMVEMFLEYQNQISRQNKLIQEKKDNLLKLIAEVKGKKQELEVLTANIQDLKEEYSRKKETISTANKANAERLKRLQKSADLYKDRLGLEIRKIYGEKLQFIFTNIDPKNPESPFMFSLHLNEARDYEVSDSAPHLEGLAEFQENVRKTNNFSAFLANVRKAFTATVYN

T1 sequence (O14777 1-286 limits assumed): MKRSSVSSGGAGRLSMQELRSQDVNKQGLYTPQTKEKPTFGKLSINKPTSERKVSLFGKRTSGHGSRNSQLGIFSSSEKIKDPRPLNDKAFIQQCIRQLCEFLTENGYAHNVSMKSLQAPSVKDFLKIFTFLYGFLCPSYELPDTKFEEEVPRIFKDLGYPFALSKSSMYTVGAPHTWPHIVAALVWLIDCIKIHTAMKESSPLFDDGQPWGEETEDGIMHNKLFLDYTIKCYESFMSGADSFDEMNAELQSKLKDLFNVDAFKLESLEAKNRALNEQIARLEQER
T1 sequence (Q9BZD4 1-169 partner limits assumed): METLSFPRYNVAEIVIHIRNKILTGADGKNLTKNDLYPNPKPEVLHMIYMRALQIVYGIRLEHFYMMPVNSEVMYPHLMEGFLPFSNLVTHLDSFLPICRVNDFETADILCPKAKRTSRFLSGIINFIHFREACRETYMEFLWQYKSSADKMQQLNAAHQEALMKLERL
T1 sequence (Q9HBM1 118-224 partner limits assumed): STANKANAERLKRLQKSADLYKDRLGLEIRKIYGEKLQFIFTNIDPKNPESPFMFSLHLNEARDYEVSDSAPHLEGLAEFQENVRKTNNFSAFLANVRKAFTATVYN
T1 sequence (Q8NBT2 122-197 partner limits assumed): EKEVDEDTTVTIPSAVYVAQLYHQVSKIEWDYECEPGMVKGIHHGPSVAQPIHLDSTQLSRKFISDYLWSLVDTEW

- Kd [1]: 2070 ± 2840 nM
SMILES: CC#CC(=O)N1CCc2c([nH]c3ccccc23)C1c1ccc(OC)c(C)c1 (stereo not drawn) [VTT-006, 2-(2-butynoyl)-1-(4-methoxy-3-methylphenyl)-2,3,4,9-tetrahydro-1H-beta-carboline]
- koff [2]: residence time of Ndc80-GFP on microtubules was significantly shorter in the presence of VTT-006

From paper PMC8667816, “VTT-006, an anti-mitotic compound, binds to the Ndc80 complex and suppresses cancer cell growth in vitro” (Oncoscience, 2021)
